Assay results: US20110071108A1, “Beta-Cyclodextrin Derivatives as Antibacterial Agents” (Pinnacle Pharmaceuticals, Inc., priority 2005, published 2011)

How the values were obtained:
Lungs cancer cells A549 = experiment: Mammalian cytotoxicity
Staphylococcus aureus = experiment: Bacterial panel testing, MIC by broth microdilution; format: cell-based; conditions: 20-24 hours growth
Outline: (§1)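 Strains grown 2-4 h at 37 °C in Mueller-Hinton or Brain Heart infusion broth, standardized to McFarland density and diluted. Compound (10 μg/ml in DMSO) serially two-fold diluted across plate in inoculated media; rifampicin control. Growth 20-24 h, clear wells scored for MIC.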

Eschericia coli = experiment: as above; format: cell-based; conditions: 20-24 hours growth
Outline: as §1

Enterococcus faecium = experiment: as above; format: cell-based; conditions: 20-24 hours growth
Outline: as §1

Salmonella choleraesuis = experiment: as above; format: cell-based; conditions: 20-24 hours growth
Outline: as §1

Bacillus atrophaeus = experiment: as above; format: cell-based; conditions: 20-24 hours growth
Outline: as §1

Pseudomonas aeruginosa = experiment: as above; format: cell-based; conditions: 20-24 hours growth
Outline: as §1

Row | Structure (SMILES) | Mammalian Cytotoxicity IC50 (Lungs cancer cells A549) | MIC SA (Staphylococcus aureus) | MIC EC (Eschericia coli) | MIC EF (Enterococcus faecium) | MIC SC (Salmonella choleraesuis) | MIC BA (Bacillus atrophaeus) | MIC PA (Pseudomonas aeruginosa)
1 | Cl.Cl.Cl.Cl.Cl.Cl.NCC1OC2OC3C(CN)OC(OC4C(CN)OC(OC5C(CN)OC(OC6C(CN)OC(OC7C(CN)OC(OC1C(O)C2O)C(O)C7O)C(O)C6O)C(O)C5O)C(O)C4O)C(O)C3O (stereo not shown) | 109.3 µg/mL | >200 µg/mL | >200 µg/mL | >200 µg/mL | >200 µg/mL | >200 µg/mL | 
2 | N=C(N)NCCSC[C@H]1O[C@@H]2O[C@H]3[C@H](O)[C@@H](O)[C@@H](O[C@H]4[C@H](O)[C@@H](O)[C@@H](O[C@H]5[C@H](O)[C@@H](O)[C@@H](O[C@H]6[C@H](O)[C@@H](O)[C@@H](O[C@H]7[C@H](O)[C@@H](O)[C@@H](O[C@H]8[C@H](O)[C@@H](O)[C@@H](O[C@H]1[C@H](O)[C@H]2O)O[C@@H]8CSCCNC(=N)N)O[C@@H]7CSCCNC(=N)N)O[C@@H]6CSCCNC(=N)N)O[C@@H]5CSCCNC(=N)N)O[C@@H]4CSCCNC(=N)N)O[C@@H]3CSCCNC(=N)N | 510 µg/mL | >200 µg/mL | >200 µg/mL | >200 µg/mL | >200 µg/mL |  | >200 µg/mL
3 | Cl.Cl.Cl.Cl.Cl.Cl.Cl.NCc1cccc(CSCC2OC3OC4C(CSCc5cccc(CN)c5)OC(OC5C(CSCc6cccc(CN)c6)OC(OC6C(CSCc7cccc(CN)c7)OC(OC7C(CSCc8cccc(CN)c8)OC(OC8C(CSCc9cccc(CN)c9)OC(OC9C(CSCc%10cccc(CN)c%10)OC(OC2C(O)C3O)C(O)C9O)C(O)C8O)C(O)C7O)C(O)C6O)C(O)C5O)C(O)C4O)c1 (stereo not shown) | 54.3 µg/mL |  |  | >200 µg/mL | >200 µg/mL |  | 
4 | CC(C)C[C@H](N)C(=O)NC[C@H]1O[C@@H]2O[C@H]3[C@H](O)[C@@H](O)[C@@H](O[C@H]4[C@H](O)[C@@H](O)[C@@H](O[C@H]5[C@H](O)[C@@H](O)[C@@H](O[C@H]6[C@H](O)[C@@H](O)[C@@H](O[C@H]7[C@H](O)[C@@H](O)[C@@H](O[C@H]8[C@H](O)[C@@H](O)[C@@H](O[C@H]1[C@H](O)[C@H]2O)O[C@@H]8CNC(=O)[C@@H](N)CC(C)C)O[C@@H]7CNC(=O)[C@@H](N)CC(C)C)O[C@@H]6CNC(=O)[C@@H](N)CC(C)C)O[C@@H]5CNC(=O)[C@@H](N)CC(C)C)O[C@@H]4CNC(=O)[C@@H](N)CC(C)C)O[C@@H]3CNC(=O)[C@@H](N)CC(C)C | 215 µg/mL | >200 µg/mL | >200 µg/mL | >200 µg/mL | >200 µg/mL |  | >200 µg/mL
5 | N[C@@H](Cc1ccccc1)C(=O)NC[C@H]1O[C@@H]2O[C@H]3[C@H](O)[C@@H](O)[C@@H](O[C@H]4[C@H](O)[C@@H](O)[C@@H](O[C@H]5[C@H](O)[C@@H](O)[C@@H](O[C@H]6[C@H](O)[C@@H](O)[C@@H](O[C@H]7[C@H](O)[C@@H](O)[C@@H](O[C@H]8[C@H](O)[C@@H](O)[C@@H](O[C@H]1[C@H](O)[C@H]2O)O[C@@H]8CNC(=O)[C@@H](N)Cc1ccccc1)O[C@@H]7CNC(=O)[C@@H](N)Cc1ccccc1)O[C@@H]6CNC(=O)[C@@H](N)Cc1ccccc1)O[C@@H]5CNC(=O)[C@@H](N)Cc1ccccc1)O[C@@H]4CNC(=O)[C@@H](N)Cc1ccccc1)O[C@@H]3CNC(=O)[C@@H](N)Cc1ccccc1 | >2000 µg/mL | >200 µg/mL | >200 µg/mL | >200 µg/mL | >200 µg/mL |  | >200 µg/mL
6 | NCCCCC(=O)NC[C@H]1O[C@@H]2O[C@H]3[C@H](O)[C@@H](O)[C@@H](O[C@H]4[C@H](O)[C@@H](O)[C@@H](O[C@H]5[C@H](O)[C@@H](O)[C@@H](O[C@H]6[C@H](O)[C@@H](O)[C@@H](O[C@H]7[C@H](O)[C@@H](O)[C@@H](O[C@H]8[C@H](O)[C@@H](O)[C@@H](O[C@H]1[C@H](O)[C@H]2O)O[C@@H]8CNC(=O)CCCCN)O[C@@H]7CNC(=O)CCCCN)O[C@@H]6CNC(=O)CCCCN)O[C@@H]5CNC(=O)CCCCN)O[C@@H]4CNC(=O)CCCCN)O[C@@H]3CNC(=O)CCCCN | 755 µg/mL | >200 µg/mL | >200 µg/mL | >200 µg/mL | >200 µg/mL |  | >200 µg/mL
7 | NC[C@H]1O[C@@H]2O[C@H]3[C@H](O)[C@@H](O)[C@@H](O[C@H]4[C@H](O)[C@@H](O)[C@@H](O[C@H]5[C@H](O)[C@@H](O)[C@@H](O[C@H]6[C@H](O)[C@@H](O)[C@@H](O[C@H]7[C@H](O)[C@@H](O)[C@@H](O[C@H]8[C@H](O)[C@@H](O)[C@@H](O[C@H]1[C@H](O)[C@H]2O)O[C@@H]8CN)O[C@@H]7CN)O[C@@H]6CN)O[C@@H]5CN)O[C@@H]4CN)O[C@@H]3CN | 720 µg/mL | >200 µg/mL |  | >200 µg/mL | >200 µg/mL |  | 
8 | NCCCCCC(=O)NC[C@H]1O[C@@H]2O[C@H]3[C@H](O)[C@@H](O)[C@@H](O[C@H]4[C@H](O)[C@@H](O)[C@@H](O[C@H]5[C@H](O)[C@@H](O)[C@@H](O[C@H]6[C@H](O)[C@@H](O)[C@@H](O[C@H]7[C@H](O)[C@@H](O)[C@@H](O[C@H]8[C@H](O)[C@@H](O)[C@@H](O[C@H]1[C@H](O)[C@H]2O)O[C@@H]8CNC(=O)CCCCCN)O[C@@H]7CNC(=O)CCCCCN)O[C@@H]6CNC(=O)CCCCCN)O[C@@H]5CNC(=O)CCCCCN)O[C@@H]4CNC(=O)CCCCCN)O[C@@H]3CNC(=O)CCCCCN | 780 µg/mL |  | >200 µg/mL | >200 µg/mL | >200 µg/mL |  | >200 µg/mL
9 | [N-]=[N+]=NC[C@H]1O[C@@H]2O[C@H]3[C@H](O)[C@@H](O)[C@@H](O[C@H]4[C@H](O)[C@@H](O)[C@@H](O[C@H]5[C@H](O)[C@@H](O)[C@@H](O[C@H]6[C@H](O)[C@@H](O)[C@@H](O[C@H]7[C@H](O)[C@@H](O)[C@@H](O[C@H]8[C@H](O)[C@@H](O)[C@@H](O[C@H]1[C@H](O)[C@H]2O)O[C@@H]8CN=[N+]=[N-])O[C@@H]7CN=[N+]=[N-])O[C@@H]6CN=[N+]=[N-])O[C@@H]5CN=[N+]=[N-])O[C@@H]4CN=[N+]=[N-])O[C@@H]3CN=[N+]=[N-] | 2116 µg/mL |  | >200 µg/mL | >200 µg/mL | >200 µg/mL |  | >200 µg/mL
10 | Cl.Cl.Cl.Cl.Cl.Cl.Cl.NCc1ccc(CSCC2OC3OC4C(CSCc5ccc(CN)cc5)OC(OC5C(CSCc6ccc(CN)cc6)OC(OC6C(CSCc7ccc(CN)cc7)OC(OC7C(CSCc8ccc(CN)cc8)OC(OC8C(CSCc9ccc(CN)cc9)OC(OC9C(CSCc%10ccc(CN)cc%10)OC(OC2C(O)C3O)C(O)C9O)C(O)C8O)C(O)C7O)C(O)C6O)C(O)C5O)C(O)C4O)cc1 (stereo not shown) | 56.2 µg/mL | >200 µg/mL |  | >200 µg/mL |  |  | 
11 | CC(C)(C)OC(=O)N[C@@H](Cc1ccccc1)C(=O)NC[C@H]1O[C@@H]2O[C@H]3[C@H](O)[C@@H](O)[C@@H](O[C@H]4[C@H](O)[C@@H](O)[C@@H](O[C@H]5[C@H](O)[C@@H](O)[C@@H](O[C@H]6[C@H](O)[C@@H](O)[C@@H](O[C@H]7[C@H](O)[C@@H](O)[C@@H](O[C@H]8[C@H](O)[C@@H](O)[C@@H](O[C@H]1[C@H](O)[C@H]2O)O[C@@H]8CNC(=O)[C@H](Cc1ccccc1)NC(=O)OC(C)(C)C)O[C@@H]7CNC(=O)[C@H](Cc1ccccc1)NC(=O)OC(C)(C)C)O[C@@H]6CNC(=O)[C@H](Cc1ccccc1)NC(=O)OC(C)(C)C)O[C@@H]5CNC(=O)[C@H](Cc1ccccc1)NC(=O)OC(C)(C)C)O[C@@H]4CNC(=O)[C@H](Cc1ccccc1)NC(=O)OC(C)(C)C)O[C@@H]3CNC(=O)[C@H](Cc1ccccc1)NC(=O)OC(C)(C)C | 193 µg/mL | >200 µg/mL | >200 µg/mL | >200 µg/mL | >200 µg/mL | >200 µg/mL | >200 µg/mL
12 | CC(C)C[C@H](NC(=O)OC(C)(C)C)C(=O)NC[C@H]1O[C@@H]2O[C@H]3[C@H](O)[C@@H](O)[C@@H](O[C@H]4[C@H](O)[C@@H](O)[C@@H](O[C@H]5[C@H](O)[C@@H](O)[C@@H](O[C@H]6[C@H](O)[C@@H](O)[C@@H](O[C@H]7[C@H](O)[C@@H](O)[C@@H](O[C@H]8[C@H](O)[C@@H](O)[C@@H](O[C@H]1[C@H](O)[C@H]2O)O[C@@H]8CNC(=O)[C@H](CC(C)C)NC(=O)OC(C)(C)C)O[C@@H]7CNC(=O)[C@H](CC(C)C)NC(=O)OC(C)(C)C)O[C@@H]6CNC(=O)[C@H](CC(C)C)NC(=O)OC(C)(C)C)O[C@@H]5CNC(=O)[C@H](CC(C)C)NC(=O)OC(C)(C)C)O[C@@H]4CNC(=O)[C@H](CC(C)C)NC(=O)OC(C)(C)C)O[C@@H]3CNC(=O)[C@H](CC(C)C)NC(=O)OC(C)(C)C | 144 µg/mL | >200 µg/mL | >200 µg/mL | >200 µg/mL | >200 µg/mL | >200 µg/mL | >200 µg/mL
13 | NCC(=O)NC[C@H]1O[C@@H]2O[C@H]3[C@H](O)[C@@H](O)[C@@H](O[C@H]4[C@H](O)[C@@H](O)[C@@H](O[C@H]5[C@H](O)[C@@H](O)[C@@H](O[C@H]6[C@H](O)[C@@H](O)[C@@H](O[C@H]7[C@H](O)[C@@H](O)[C@@H](O[C@H]8[C@H](O)[C@@H](O)[C@@H](O[C@H]1[C@H](O)[C@H]2O)O[C@@H]8CNC(=O)CN)O[C@@H]7CNC(=O)CN)O[C@@H]6CNC(=O)CN)O[C@@H]5CNC(=O)CN)O[C@@H]4CNC(=O)CN)O[C@@H]3CNC(=O)CN | 690 µg/mL | >200 µg/mL | >200 µg/mL | >200 µg/mL | >200 µg/mL |  | >200 µg/mL
